Data reported in the NIST ThermoML archive (doi:10.1021/je500153g).

Assay: xn = mol fraction of the nth substance listed
Conditions: 101 kPa, Liquid; for viscosity: Concentric cylinders viscometry; for mass density: Vibrating tube method

O=S1(=O)CCCC1 [sulfolane] + CCC(C)O
Conditions | mass density, 303.15 K [kg/m3] | mass density, 313.15 K [kg/m3] | mass density, 323.15 K [kg/m3] | mass density, 333.15 K [kg/m3] | mass density, 343.15 K [kg/m3] | viscosity, 303.15 K [mPa·s] | viscosity, 313.15 K [mPa·s] | viscosity, 323.15 K [mPa·s] | viscosity, 333.15 K [mPa·s] | viscosity, 343.15 K [mPa·s]
x1 = 0.099 | 846.6 | 837.8 | 828.8 | 819.3 | 809.4 | 2.16 | 1.62 | 1.26 | 1 | 0.8
x1 = 0.198 | 894.1 | 885.2 | 876 | 866.7 | 857 | 2.17 | 1.67 | 1.33 | 1.08 | 0.89
x1 = 0.298 | 941.7 | 932.9 | 923.8 | 914.6 | 905 | 2.34 | 1.83 | 1.49 | 1.21 | 1.01
x1 = 0.38 | 980.6 | 971.7 | 962.6 | 953.3 | 943.9 | 2.56 | 2.01 | 1.63 | 1.35 | 1.14
x1 = 0.499 | 1036.4 | 1027.5 | 1018.4 | 1009.3 | 1000 | 2.98 | 2.37 | 1.93 | 1.61 | 1.37
x1 = 0.593 | 1079.6 | 1070.7 | 1061.8 | 1052.7 | 1043.5 | 3.46 | 2.77 | 2.27 | 1.89 | 1.62
x1 = 0.691 | 1125.1 | 1116.2 | 1107.2 | 1098.2 | 1089.2 | 4.19 | 3.36 | 2.76 | 2.31 | 1.97
x1 = 0.799 | 1173.9 | 1165.1 | 1156.2 | 1147.4 | 1138.5 | 5.41 | 4.32 | 3.53 | 2.94 | 2.49
x1 = 0.9 | 1219 | 1210.1 | 1201.4 | 1192.5 | 1183.7 | 7.23 | 5.72 | 4.63 | 3.82 | 3.21
x1 = 1 | 1262.9 | 1254.1 | 1245.2 | 1236.6 | 1228.1 | 10.4 | 8.07 | 6.45 | 5.22 | 4.32

OCCOCCOCCO [triethylene glycol] + O=S1(=O)CCCC1
Conditions | mass density, 303.15 K [kg/m3] | mass density, 313.15 K [kg/m3] | mass density, 323.15 K [kg/m3] | mass density, 333.15 K [kg/m3] | mass density, 343.15 K [kg/m3] | viscosity, 303.15 K [mPa·s] | viscosity, 313.15 K [mPa·s] | viscosity, 323.15 K [mPa·s] | viscosity, 333.15 K [mPa·s] | viscosity, 343.15 K [mPa·s]
x2 = 0 | 1116.5 | 1108.9 | 1101.1 | 1093.4 | 1085.5 | 29.5 | 19.3 | 13.3 | 9.58 | 7.16
x2 = 0.123 | 1130.3 | 1122.4 | 1114.6 | 1106.6 | 1098.5 | 25.6 | 16.9 | 11.8 | 8.6 | 6.49
x2 = 0.268 | 1147.6 | 1139.5 | 1131.5 | 1123.3 | 1115 | 21.2 | 14.3 | 10.1 | 7.49 | 5.74
x2 = 0.505 | 1178.8 | 1170.5 | 1161.9 | 1153.4 | 1145 | 15.6 | 10.9 | 8 | 6.09 | 4.78
x2 = 0.598 | 1192.2 | 1183.7 | 1175.1 | 1166.6 | 1158 | 13.9 | 9.9 | 7.36 | 5.67 | 4.49
x2 = 0.678 | 1204.5 | 1196 | 1187.5 | 1178.8 | 1170.1 | 12.6 | 9.13 | 6.88 | 5.36 | 4.29
x2 = 0.768 | 1219 | 1210.3 | 1201.5 | 1192.9 | 1184.3 | 11.4 | 8.4 | 6.43 | 5.09 | 4.12
x2 = 0.837 | 1231.3 | 1222.6 | 1213.9 | 1205.2 | 1196.4 | 10.8 | 8.11 | 6.29 | 5.01 | 4.1
x2 = 0.929 | 1248.8 | 1240 | 1231.2 | 1222.4 | 1213.7 | 10.3 | 7.89 | 6.22 | 5.02 | 4.13

O=S1(=O)CCCC1 [sulfolane] + CC(C)O
Conditions | mass density, 303.15 K [kg/m3] | mass density, 313.15 K [kg/m3] | mass density, 323.15 K [kg/m3] | mass density, 333.15 K [kg/m3] | mass density, 343.15 K [kg/m3] | viscosity, 303.15 K [mPa·s] | viscosity, 313.15 K [mPa·s] | viscosity, 323.15 K [mPa·s] | viscosity, 333.15 K [mPa·s] | viscosity, 343.15 K [mPa·s]
x1 = 0.075 | 823.6 | 814.6 | 805.3 | 795.5 | 785.2 | 1.62 | 1.27 | 1.01 | 0.81 | 0.66
x1 = 0.164 | 875.9 | 866.9 | 857.5 | 847.9 | 837.9 | 1.69 | 1.34 | 1.08 | 0.89 | 0.74
x1 = 0.25 | 924 | 914.8 | 905.4 | 896 | 886 | 1.85 | 1.48 | 1.2 | 1 | 0.84
x1 = 0.353 | 978.7 | 969.6 | 960.4 | 950.7 | 941.1 | 2.14 | 1.71 | 1.41 | 1.18 | 0.99
x1 = 0.437 | 1021.3 | 1012.1 | 1002.9 | 993.8 | 984.3 | 2.43 | 1.96 | 1.62 | 1.36 | 1.14
x1 = 0.536 | 1069.3 | 1060.2 | 1050.9 | 1041.6 | 1032.1 | 2.91 | 2.35 | 1.95 | 1.64 | 1.4
x1 = 0.656 | 1124.3 | 1115.3 | 1106.2 | 1097 | 1087.7 | 3.75 | 3.03 | 2.5 | 2.11 | 1.8
x1 = 0.768 | 1172.1 | 1163.1 | 1154.1 | 1145.1 | 1135.9 | 4.97 | 3.99 | 3.27 | 2.73 | 2.32
x1 = 0.88 | 1219.3 | 1210.4 | 1201.6 | 1192.6 | 1183.7 | 6.92 | 5.48 | 4.45 | 3.68 | 3.1
x1 = 1 | 1262.9 | 1254.1 | 1245.2 | 1236.6 | 1228.1 | 10.4 | 8.07 | 6.45 | 5.22 | 4.32

O=S1(=O)CCCC1 [sulfolane] + OCCOCCO
Conditions | mass density, 303.15 K [kg/m3] | mass density, 313.15 K [kg/m3] | mass density, 323.15 K [kg/m3] | mass density, 333.15 K [kg/m3] | mass density, 343.15 K [kg/m3] | viscosity, 303.15 K [mPa·s] | viscosity, 313.15 K [mPa·s] | viscosity, 323.15 K [mPa·s] | viscosity, 333.15 K [mPa·s] | viscosity, 343.15 K [mPa·s]
x1 = 0.097 | 1125 | 1117.6 | 1110.2 | 1102.7 | 1094.9 | 19.1 | 12.9 | 9.13 | 6.74 | 5.15
x1 = 0.198 | 1140 | 1132.5 | 1124.8 | 1117 | 1109.1 | 16.3 | 11.2 | 8.04 | 6.01 | 4.65
x1 = 0.319 | 1158.2 | 1150.3 | 1142.3 | 1134.2 | 1126.1 | 13.8 | 9.62 | 7.03 | 5.35 | 4.19
x1 = 0.414 | 1172.2 | 1164.2 | 1156.1 | 1147.8 | 1139.6 | 12.2 | 8.7 | 6.46 | 4.97 | 3.94
x1 = 0.499 | 1185.2 | 1176.9 | 1168.6 | 1160.3 | 1151.9 | 11.2 | 8.07 | 6.07 | 4.72 | 3.78
x1 = 0.614 | 1202.9 | 1194.5 | 1186 | 1177.5 | 1169 | 10.2 | 7.49 | 5.72 | 4.5 | 3.64
x1 = 0.698 | 1215.6 | 1207.1 | 1198.5 | 1190 | 1181.3 | 9.72 | 7.25 | 5.61 | 4.47 | 3.64
x1 = 0.789 | 1229.7 | 1221.1 | 1212.5 | 1203.8 | 1195.1 | 9.35 | 7.08 | 5.54 | 4.46 | 3.66
x1 = 0.887 | 1245 | 1236.3 | 1227.5 | 1218.8 | 1210.1 | 9.39 | 7.23 | 5.72 | 4.64 | 3.84
x1 = 1 | 1262.9 | 1254.1 | 1245.2 | 1236.6 | 1228.1 | 10.4 | 8.07 | 6.45 | 5.22 | 4.32
